Experiments:
Type in all cases: cell-based
[1] = biological target: Sodium- and chloride-dependent GABA transporter 1 (Homo sapiens, UniProt P30531); test: Inhibition of human […] expressed in tsA201 cells assessed as inhibition of [3H]GABA uptake by liquid scintillation method
[2] = biological target: T1, Sodium- and chloride-dependent betaine transporter (Homo sapiens, UniProt P48065); test: Inhibition of human BGT1 expressed in tsA201 cells assessed as inhibition of [3H]GABA uptake by liquid scintillation method
T1 sequence (P48065 whole entry): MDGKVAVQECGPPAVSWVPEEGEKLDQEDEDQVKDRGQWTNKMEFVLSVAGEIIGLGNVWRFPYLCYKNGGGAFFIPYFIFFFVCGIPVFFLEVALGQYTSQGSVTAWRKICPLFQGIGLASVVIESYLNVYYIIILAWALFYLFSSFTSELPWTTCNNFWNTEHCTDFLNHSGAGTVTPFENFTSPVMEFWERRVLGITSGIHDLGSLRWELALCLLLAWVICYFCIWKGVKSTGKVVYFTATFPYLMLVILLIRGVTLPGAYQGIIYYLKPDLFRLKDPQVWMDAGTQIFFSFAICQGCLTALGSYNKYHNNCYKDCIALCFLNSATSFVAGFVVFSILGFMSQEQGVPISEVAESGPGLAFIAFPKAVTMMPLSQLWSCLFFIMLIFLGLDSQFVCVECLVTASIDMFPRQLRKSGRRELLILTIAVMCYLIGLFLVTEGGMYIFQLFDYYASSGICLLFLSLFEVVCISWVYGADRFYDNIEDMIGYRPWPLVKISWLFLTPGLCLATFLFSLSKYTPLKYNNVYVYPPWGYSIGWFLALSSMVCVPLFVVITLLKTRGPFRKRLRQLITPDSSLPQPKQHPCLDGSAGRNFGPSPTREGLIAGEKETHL

[3] = biological target: T2, Sodium- and chloride-dependent GABA transporter 2 (Homo sapiens, UniProt Q9NSD5); test: Inhibition of human […] expressed in tsA201 cells assessed as inhibition of [3H]GABA uptake by liquid scintillation method
T2 sequence (Q9NSD5 whole entry): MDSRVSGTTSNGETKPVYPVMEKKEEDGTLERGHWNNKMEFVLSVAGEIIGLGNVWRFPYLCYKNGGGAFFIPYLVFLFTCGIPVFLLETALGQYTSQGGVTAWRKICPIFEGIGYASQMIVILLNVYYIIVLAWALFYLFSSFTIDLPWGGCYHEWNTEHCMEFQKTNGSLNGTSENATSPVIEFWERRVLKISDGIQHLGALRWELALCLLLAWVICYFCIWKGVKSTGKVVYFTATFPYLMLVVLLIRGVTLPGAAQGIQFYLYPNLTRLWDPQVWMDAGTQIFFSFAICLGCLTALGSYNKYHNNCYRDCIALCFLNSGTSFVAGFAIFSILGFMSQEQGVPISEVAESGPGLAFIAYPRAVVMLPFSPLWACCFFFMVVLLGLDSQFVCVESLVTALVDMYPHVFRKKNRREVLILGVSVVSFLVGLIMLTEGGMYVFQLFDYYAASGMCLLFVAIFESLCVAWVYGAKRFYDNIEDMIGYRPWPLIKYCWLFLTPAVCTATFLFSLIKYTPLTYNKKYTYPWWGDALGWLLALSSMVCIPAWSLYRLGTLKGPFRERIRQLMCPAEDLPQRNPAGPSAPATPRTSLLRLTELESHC

[4] = biological target: T3, Sodium- and chloride-dependent GABA transporter 3 (Homo sapiens, UniProt P48066); test: Inhibition of human […] expressed in tsA201 cells assessed as inhibition of [3H]GABA uptake by liquid scintillation method
T3 sequence (P48066 whole entry): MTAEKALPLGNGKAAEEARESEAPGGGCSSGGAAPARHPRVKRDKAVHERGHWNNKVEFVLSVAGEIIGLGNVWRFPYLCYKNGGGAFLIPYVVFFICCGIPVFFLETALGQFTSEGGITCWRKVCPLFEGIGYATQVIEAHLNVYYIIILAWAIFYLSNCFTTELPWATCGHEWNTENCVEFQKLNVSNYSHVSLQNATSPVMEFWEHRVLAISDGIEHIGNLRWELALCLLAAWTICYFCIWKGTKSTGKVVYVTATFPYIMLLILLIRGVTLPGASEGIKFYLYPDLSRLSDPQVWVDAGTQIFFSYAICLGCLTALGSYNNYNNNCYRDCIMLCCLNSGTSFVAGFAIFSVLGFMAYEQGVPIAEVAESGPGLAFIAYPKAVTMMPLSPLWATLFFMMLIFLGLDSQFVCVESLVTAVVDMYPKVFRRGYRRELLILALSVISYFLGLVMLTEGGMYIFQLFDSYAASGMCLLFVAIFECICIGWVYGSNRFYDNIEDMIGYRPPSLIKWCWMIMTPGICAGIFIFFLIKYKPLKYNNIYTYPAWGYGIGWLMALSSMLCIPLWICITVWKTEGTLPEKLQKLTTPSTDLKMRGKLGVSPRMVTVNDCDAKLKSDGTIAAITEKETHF

Chain of Sodium- and chloride-dependent GABA transporter 1 (P30531 whole entry): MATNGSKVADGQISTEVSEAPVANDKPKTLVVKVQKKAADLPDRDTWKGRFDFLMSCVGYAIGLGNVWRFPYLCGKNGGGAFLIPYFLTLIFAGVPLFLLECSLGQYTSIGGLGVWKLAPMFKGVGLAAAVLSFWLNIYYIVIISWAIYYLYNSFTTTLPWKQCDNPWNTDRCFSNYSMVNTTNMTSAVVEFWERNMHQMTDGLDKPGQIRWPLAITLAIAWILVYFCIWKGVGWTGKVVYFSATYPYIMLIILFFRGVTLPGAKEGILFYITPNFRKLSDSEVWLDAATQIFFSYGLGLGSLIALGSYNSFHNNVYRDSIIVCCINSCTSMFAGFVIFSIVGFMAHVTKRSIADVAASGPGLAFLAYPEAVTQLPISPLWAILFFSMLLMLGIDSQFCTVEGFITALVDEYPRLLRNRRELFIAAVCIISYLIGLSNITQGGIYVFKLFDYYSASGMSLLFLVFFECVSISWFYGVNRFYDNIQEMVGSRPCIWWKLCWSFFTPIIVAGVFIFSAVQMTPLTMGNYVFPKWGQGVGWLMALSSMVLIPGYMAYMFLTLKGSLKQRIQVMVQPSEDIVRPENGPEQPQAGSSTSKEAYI

Compound: NCC(N)C(=O)O (centres undefined)
- IC50 [1]: > 1000 µM
- IC50 [2]: 631 µM
- IC50 [3]: 39.8 µM
- IC50 [4]: 31.6 µM

— ChEMBL document CHEMBL4765247, “Novel mouse GABA uptake inhibitors with enhanced inhibitory activity toward mGAT3/4 and their effect on pain threshold in mice” (Eur J Med Chem, 2020)
